# Source: US10662164B2, “Non-beta lactam antibiotics” (University of Notre Dame du Lac, priority 2014, dated 2020)
# Read-outs that look alike come from different tables or passages of the source.
# Experiments:
# [1] = tested on: E. faecium NCTC 7171; test: MIC determination; assay type: cell-based, Enterococcus faecium; conditions: for MIC: Enterococcus faecium
# [2] = tested on: S. aureus ATCC 29213; test: MIC determination; assay type: cell-based, Staphylococcus aureus; conditions: for antibacterial activity in words (SAR, ring A derivatives): S. aureus ATCC 29213, compounds of Schemes 3-4; for S. aureus ATCC 29213 MIC: Table 3.1, compounds of Schemes 2-4
# [3] = NCTC7171, Table 3.1, compounds of Schemes 2-4, read-out: E. faecium NCTC 7171 MIC
# [4] = Staphylococcus aureus, ATCC29213, Table 3.1 and SAR text, compounds of Schemes 2-4, read-out: S. aureus ATCC 29213 MIC
# [5] = NCTC7171, read-out: E. faecium NCTC 7171 MIC
# [6] = S. aureus ATCC29213, second numbering, compounds of Scheme 6
# [7] = Staphylococcus aureus, ATCC29213, read-out: S. aureus ATCC 29213 MIC
# [8] = Table 3.1, compounds of Schemes 2-4
SMILES,"MIC [1, 3]","MIC [2, 4]",other results
Fc1ccc(Oc2ccc(-c3noc(-c4n[nH]c5ccccc45)n3)cc2)cc1 [Compound 123c],16 µg/mL,> 128 µg/mL,–
Oc1ccc(-c2nc(-c3ccc(OC4CCCC4)cc3)no2)cc1 [DR-03-235],–,–,"MIC S. aureus ATCC 29213 MH ([2]; Mueller Hinton broth, Table 2.2, in µg/mL): 0.5-1"
Oc1cc(-c2nc(-c3ccc(Oc4ccccc4)cc3)no2)ccc1I [Compound 96a],32 µg/mL,> 128 µg/mL,"antibacterial activity in words (SAR, ring A derivatives) [2]: failed to show significant activity"
Clc1c[nH]nc1-c1nc(-c2ccc(Oc3ccccc3)cc2)no1 [Compound 60a],–,–,"MIC [1, 5]: > 128 µg/mL; MIC [2, 6]: 8 µg/mL; MIC [2, 7]: 1 µg/mL"
CC(C)(C)OC(=O)N1CCC(Nc2c[nH]nc2-c2nc(-c3ccc(Oc4ccc(C(F)(F)F)cc4)cc3)no2)CC1 [Compound 110b],> 128 µg/mL,> 128 µg/mL,–
Oc1c(F)cc(-c2nc(-c3ccc(Oc4ccc(F)cc4)cc3)no2)cc1F [Compound 71c],4 µg/mL,8 µg/mL,–
Oc1ccc(-c2nc(-c3ccc(Oc4ccc(C(F)(F)F)cc4)cc3)no2)cc1F [Compound 70b],–,–,"E. faecium NCTC 7171 MIC [1, 8]: 2 µg/mL; S. aureus ATCC 29213 MIC [2]: 2 µg/mL"
Ic1c[nH]nc1-c1nc(-c2ccc(Oc3ccccc3)cc2)no1 [62a],32 µg/mL,1 µg/mL,–
CC(C)c1cc(-c2nc(-c3ccc(Oc4ccc(F)cc4)cc3)no2)[nH]n1 [Compound 119c],64 µg/mL,> 128 µg/mL,"antibacterial activity in words (SAR, ring A derivatives) [2]: No activity"
O=[N+]([O-])c1c[nH]nc1-c1nc(-c2ccc(Oc3ccc(F)cc3)cc2)no1 [Compound 63c],4 µg/mL,1 µg/mL,–
"O=[N+]([O-])c1c[nH]nc1-c1nc(-c2ccc(Oc3ccc(C(F)(F)F)cc3)cc2)no1 [Compound 63b, 5-(4-Nitro-1H-pyrazole-3-yl)-3-(4-(4-(trifluoromethyl)phenoxy)phenyl)-1,2,4-oxadiazole]",2 µg/mL,2 µg/mL,–
NC(=O)c1ccc(-c2nc(-c3ccc(Oc4ccc(F)cc4)cc3)no2)cc1 [Compound 88c],64 µg/mL,> 128 µg/mL,"antibacterial activity in words (SAR, ring A derivatives) [2]: failed to show significant activity"
NS(=O)(=O)c1ccc(-c2nc(-c3ccc(Oc4ccc(F)cc4)cc3)no2)cc1 [Compound 87c],> 128 µg/mL,> 128 µg/mL,–
Oc1ccc(-c2nc(-c3ccc(Oc4ccc(F)cc4)cc3)no2)cc1 [Compound 57c],1 µg/mL,1 µg/mL,–
COc1ccc(-c2nc(-c3ccc(Oc4ccc(C(F)(F)F)cc4)cc3)no2)cc1[N+](=O)[O-] [Compound 99b],> 128 µg/mL,> 128 µg/mL,–
Nc1cc(-c2nc(-c3ccc(Oc4ccc(F)cc4)cc3)no2)ccc1O [Compound 92c],128 µg/mL,> 128 µg/mL,"antibacterial activity in words (SAR, ring A derivatives) [2]: failed to show significant activity"
Cl.NC(Cc1ccccc1)c1nc(-c2ccc(Oc3ccccc3)cc2)no1 (stereo not shown) [Compound 136a],–,–,"E. faecium NCTC 7171 MIC [1, 8]: >128 µg/mL"
CC(C)Nc1c[nH]nc1-c1nc(-c2ccc(Oc3ccccc3)cc2)no1 [Compound 65a],–,–,"MIC [1, 5]: > 128 µg/mL; antibacterial activity in words (SAR, C/D ring derivatives) [2, 6]: did not alter the activity; MIC [2, 7]: 0.5 µg/mL"
Cl.c1ccc(Oc2ccc(-c3noc(C4CCCN4)n3)cc2)cc1 (stereo not shown) [Compound 132a],–,–,"E. faecium NCTC 7171 MIC [1, 8]: 64 µg/mL"
c1ccc(Oc2ccc(-c3noc(-c4ccc5[nH]ncc5c4)n3)cc2)cc1 [Compound 124a],64 µg/mL,> 128 µg/mL,"antibacterial activity in words (SAR, ring A derivatives) [2]: No activity"
Fc1ccc(Oc2ccc(-c3noc(-c4cc[nH]c4)n3)cc2)cc1 [Compound 127c],> 128 µg/mL,> 128 µg/mL,"antibacterial activity in words (SAR, ring A derivatives) [2]: No activity"
COC(=O)c1ccc(-c2nc(-c3ccc(Oc4ccc(F)cc4)cc3)no2)cc1 [Compound 90c],> 128 µg/mL,> 128 µg/mL,"antibacterial activity in words (SAR, ring A derivatives) [2]: failed to show significant activity"
O=c1cc(-c2nc(-c3ccc(Oc4ccc(C(F)(F)F)cc4)cc3)no2)[nH]c(=O)[nH]1 [Compound 135b],> 128 µg/mL,–,–
N#Cc1c[nH]nc1-c1nc(-c2ccc(Oc3ccc(C(F)(F)F)cc3)cc2)no1 [Compound 67b],> 128 µg/mL,2 µg/mL,"antibacterial activity in words (SAR, ring A derivatives) [2]: good activity"
Oc1ccc(-c2nc(-c3ccc(Oc4ccc(C(F)(F)F)cc4)cc3)no2)cn1 [Compound 120b],32 µg/mL,> 128 µg/mL,–

SMILES,"MIC [1, 3]","MIC [2, 4]",other results
CCC(C)Nc1c[nH]nc1-c1nc(-c2ccc(Oc3ccc(C(F)(F)F)cc3)cc2)no1 (stereo not shown) [Compound 105b],128 µg/mL,> 128 µg/mL,"antibacterial activity in words (SAR, ring A derivatives) [2]: did not extend"
Cl.c1ccc(Oc2ccc(-c3noc(C4CCNCC4)n3)cc2)cc1 [Compound 128a],–,–,"E. faecium NCTC 7171 MIC [1, 8]: 16 µg/mL"
Oc1cccc(-c2nc(-c3ccc(Oc4ccccc4)cc3)no2)c1 [Compound 95a],> 128 µg/mL,> 128 µg/mL,"antibacterial activity in words (SAR, ring A derivatives) [2]: failed to show significant activity"
Oc1ccc(-c2nc(-c3ccc(Oc4ccc(F)cc4)cc3)no2)cc1F [Compound 70c],2 µg/mL,2 µg/mL,–
"Nc1c[nH]nc1-c1nc(-c2ccc(Oc3ccc(C(F)(F)F)cc3)cc2)no1 [Compound 64b, 3-(3-(4-(4-(Trifluoromethyl)phenoxy)phenyl)-1,2,4-oxadiazol-5-yl)-1H-pyrazol-4-amine]",16 µg/mL,4 µg/mL,–
Nc1c[nH]nc1-c1nc(-c2ccc(Oc3ccc(F)cc3)cc2)no1 [Compound 64c],32 µg/mL,16 µg/mL,–
FC(F)(F)c1ccc(Oc2ccc(-c3noc(-c4n[nH]cc4I)n3)cc2)cc1 [Compound 62b],32 µg/mL,2 µg/mL,–
CCOP(=O)(OCC)c1ccc(-c2nc(-c3ccc(Oc4ccc(F)cc4)cc3)no2)cc1 [Compound 85c],–,–,"MIC [1, 5]: > 128 µg/mL; MIC [2, 7]: > 128 µg/mL"
FC(F)(F)c1ccc(Oc2ccc(-c3noc(-c4n[nH]cc4Br)n3)cc2)cc1 [Compound 61b],> 128 µg/mL,1 µg/mL,–
O=C1C[C@@H](c2nc(-c3ccc(Oc4ccc(C(F)(F)F)cc4)cc3)no2)CN1 [Compound 134b],> 128 µg/mL,–,–
Oc1c(F)cc(-c2nc(-c3ccc(Oc4ccc(C(F)(F)F)cc4)cc3)no2)cc1F [Compound 71b],–,–,"E. faecium NCTC 7171 MIC [1, 8]: 2 µg/mL; S. aureus ATCC 29213 MIC [2]: 2 µg/mL"
FC(F)(F)c1ccc(Oc2ccc(-c3noc(-c4n[nH]c5ccccc45)n3)cc2)cc1 [Compound 123b],> 128 µg/mL,> 128 µg/mL,–
O=C(O)c1ccc(-c2nc(-c3ccc(Oc4ccc(F)cc4)cc3)no2)cc1 [Compound 89c],128 µg/mL,> 128 µg/mL,"antibacterial activity in words (SAR, ring A derivatives) [2]: failed to show significant activity"
Nc1ccc(-c2nc(-c3ccc(Oc4ccccc4)cc3)no2)cc1 [Compound 58a],–,–,"MIC [1, 5]: 2 µg/mL; MIC [2, 7]: 4 µg/mL"
c1ccc(Oc2ccc(-c3noc(-c4ccncc4)n3)cc2)cc1 [Compound 114a],64 µg/mL,> 128 µg/mL,"antibacterial activity in words (SAR, ring A derivatives) [2]: No activity"
Oc1ccc(-c2nc(-c3ccc(Oc4ccc(C(F)(F)F)cc4)cc3)no2)cc1O [Compound 69b],128 µg/mL,2 µg/mL,–
Fc1ccc(Oc2ccc(-c3noc(-c4ccc(Br)cc4)n3)cc2)cc1 [Compound 81c],> 128 µg/mL,> 128 µg/mL,–
Nc1cc(-c2nc(-c3ccc(Oc4ccc(C(F)(F)F)cc4)cc3)no2)cnc1O [Compound 121b],64 µg/mL,> 128 µg/mL,–
O=[N+]([O-])c1c[nH]c(-c2nc(-c3ccc(Oc4ccc(F)cc4)cc3)no2)c1 [Compound 78c],128 µg/mL,> 128 µg/mL,"antibacterial activity in words (SAR, ring A derivatives) [2]: No activity"
CC(=O)Nc1ccc(-c2nc(-c3ccc(Oc4ccc(C(F)(F)F)cc4)cc3)no2)cc1 [Compound 83b],–,256 µg/mL,–
FC(F)(F)c1ccc(Oc2ccc(-c3noc(-c4ccc(Br)cc4)n3)cc2)cc1 [Compound 81b],–,> 1000 µg/mL,–
Fc1ccc(-c2nc(-c3ccc(Oc4ccccc4)cc3)no2)cc1 [Compound 80a],–,> 1000 µg/mL,–
Oc1ccc(Cc2nc(-c3ccc(Oc4ccccc4)cc3)no2)cc1 [Compound 74a],8 µg/mL,–,–
Fc1ccc(-c2nc(-c3ccc(Oc4ccc(C(F)(F)F)cc4)cc3)no2)cc1 [Compound 80b],–,> 1200 µg/mL,–
O=C1C[C@H](c2nc(-c3ccc(Oc4ccc(C(F)(F)F)cc4)cc3)no2)CN1 [Compound 133b],> 128 µg/mL,–,–
